{
  "source": "patent US20080221100A1",
  "about": "“SOLUBLE EPOXIDE HYDROLASE INHIBITORS” (Arete Therapeutics, Inc., priority 2006, published 2008)",
  "data": [
    {"tested_on": "not given", "assay": "not given", "details": "not given", "units": {"melting point": "°C"}, "values": [
      {"compound": "COCC(=O)N1CCC(NC(=O)Nc2ccc(C(F)(F)F)cc2)CC1", "note": "[Compound 51, 1-(1-(2-methoxyacetyl)piperidin-4-yl)-3-(4-(trifluoromethyl)phenyl)urea]", "melting point": "214 to 215"},
      {"compound": "CC(C)C(=O)N1CCC(NC(=O)Nc2ccc(Br)cc2)CC1", "note": "[Compound 46, 1-(4-bromophenyl)-3-(1-isobutyrylpiperidin-4-yl)urea]", "melting point": "193 to 204"},
      {"compound": "CS(=O)(=O)N1CCC(NC(=O)Nc2cccc(F)c2)CC1", "note": "[Compound 31, 1-(3-Fluoro-phenyl)-3-(1-methanesulfonyl-piperidin-4-yl)-urea]", "melting point": "212 to 214"},
      {"compound": "CC(C)(C)[S+]([O-])N1CCC(NC(=O)Nc2ccc(C(F)(F)F)cc2)CC1", "note": "(stereo not shown) [Compound 52, 1-(1-(tert-butylsulfinyl)piperidin-4-yl)-3-(4-(trifluoromethyl)phenyl)urea]", "melting point": "229 to 230"},
      {"compound": "CC(=O)N1CCC(NC(=O)Nc2ccc(Br)cc2)CC1", "note": "[Compound 43, 1-(1-acetylpiperidin-4-yl)-3-(4-bromophenyl)urea]", "melting point": "213 to 216"},
      {"compound": "O=C(Nc1cccc(C(F)(F)F)c1)NC1CCN(S(=O)(=O)c2ccc(Cl)cc2)CC1", "note": "[Compound 30, 1-[1-(4-Chloro-benzenesulfonyl)-piperidin-4-yl]-3-(3-trifluoromethyl-phenyl)-urea]", "melting point": "116 to 118"},
      {"compound": "CC(C)(C)C(=O)N1CCC(NC(=O)Nc2ccc(C(F)(F)F)cc2)CC1", "note": "[Compound 41, 1-(1-Pivaloylpiperidin-4-yl)-3-(4-(trifluoromethyl)phenyl)urea]", "melting point": "263 to 265"},
      {"compound": "CC(C)S(=O)(=O)N1CCC(NC(=O)Nc2ccc(Br)cc2)CC1", "note": "[Compound 44, 1-(4-bromophenyl)-3-(1-(isopropylsulfonyl)piperidin-4-yl)urea]", "melting point": "240 to 242"}
    ]},
    {"tested_on": "soluble epoxide hydrolase (sEH)", "assay": "Fluorescent assay for mouse and human soluble epoxide hydrolase (CMNPC substrate)", "format": "biochemical, mouse or human, not specified", "details": "Conc 50 nM", "description": "(§1) Fluorescent Assay for Mouse and Human Soluble Epoxide Hydrolase Recombinant mouse sEH (MsEH) and human sEH (HsEH) were produced in a baculovirus expression system as previously reported. Grant et al., J. Biol. Chem., 268:17628-17633 (1993); Beetham et al., Arch. Biochem. Biophys., 305:197-201 (1993). The expressed proteins were purified from cell lysate by affinity chromatography. Wixtrom et al., Anal. Biochem., 169:71-80 (1988). Protein concentration was quantified using the Pierce BCA assay using bovine serum albumin as the calibrating standard. […] They contained no detectable esterase or glutathione transferase activity which can interfere with the assay. The assay was also evaluated with similar results in crude cell lysates or homogenate of tissues. The IC50s for each inhibitor were determined according to the following procedure: Substrate: [drawing 155] […] Jones P. D. et al.; Analytical Biochemistry 2005; 343: pp. 66-75) Solutions: Bis/Tris HCl 25 mM pH 7.0 containing 0.1 mg/mL of BSA (buffer […] at 0.25 mM in DMSO. Mother solution of enzyme in buffer A (Mouse sEH at 6 μg/mL and Human sEH at 5 μg/mL). Inhibitor dissolved in DMSO at the appropriate concentration. Protocol: In a black 96 well plate, fill all the wells with 150 μL of buffer A. Add 2 μL of DMSO in well A2 and A3, and then add 2 μL of inhibitor solution in A1 and A4 through A12. Add 150 μL of buffer A in row A, then mix several time and transfer 150 μL to row B. Repeat this operation up to row H. The 150 μL removed from row H is discarded. Add 20 μL of buffer A in column 1 and 2, then add 20 μL of enzyme solution to column 3 to 12. Incubate the plate for 5 minutes in the plate reader at 30° C. During incubation prepare the working solution of substrate by mixing 3.68 mL of buffer A (4×0.920 mL) with 266 μL (2×133 μL) of substrate solution). At t=0, add 30 μL of working substrate solution with multi-channel pipette labeled “Briggs 303” and start the reading ([S]final: 5 μM). Read with ex: 330 nm (20 nm) and em: 465 nm (20 nm) every 30 second for 10 minutes. The velocities are used to analyze and calculate the IC50s.", "units": {"% Inhibition": "%"}, "values": [
      {"compound": "O=C(Nc1ccc(C(F)(F)F)cc1)NC1CCN(S(=O)(=O)c2ccc(Cl)cc2)CC1", "note": "[Compound 18, 1-[1-(4-Chloro-benzenesulfonyl)-piperidin-4-yl]-3-(4-trifluoromethyl-phenyl)-urea]", "% Inhibition": 90},
      {"compound": "O=C(Nc1ccc(C(F)(F)F)cc1)NC1CCN(S(=O)(=O)c2ccccc2)CC1", "note": "[Compound 17, 1-(1-Benzenesulfonyl-piperidin-4-yl)-3-(4-trifluoromethyl-phenyl)-urea]", "% Inhibition": 90},
      {"compound": "O=C(Nc1cccc(C(F)(F)F)c1)NC1CCN(S(=O)(=O)c2ccc(C(F)(F)F)cc2)CC1", "note": "[Compound 29, 1-[1-(4-Trifluoromethyl-benzenesulfonyl)-piperidin-4-yl]-3-(3-trifluoromethyl-phenyl)-urea]", "% Inhibition": 95},
      {"compound": "CS(=O)(=O)N1CCC(NC(=O)Nc2cccc(C(F)(F)F)c2)CC1", "note": "[Compound 24, 1-(1-Methanesulfonyl-piperidin-4-yl)-3-(3-trifluoromethyl-phenyl)-urea]", "% Inhibition": 86},
      {"compound": "O=C(Nc1ccc(Cl)cc1)NC1CCN(S(=O)(=O)c2ccc(C(=O)O)cc2)CC1", "note": "[Compound 15, 4-{4-[3-(4-Chloro-phenyl)-ureido]-piperidine-1-sulfonyl}-benzoic acid]", "% Inhibition": 75},
      {"compound": "O=C(Nc1ccc(C(F)(F)F)cc1)NC1CCN(S(=O)(=O)c2cccc(C(F)(F)F)c2)CC1", "note": "[Compound 20, 1-[1-(3-Trifluoromethyl-benzenesulfonyl)-piperidin-4-yl]-3-(4-trifluoromethyl-phenyl)-urea]", "% Inhibition": 96},
      {"compound": "O=C(Nc1cccc(C(F)(F)F)c1)NC1CCN(S(=O)(=O)c2ccc(Cl)cc2)CC1", "note": "[Compound 30, 1-[1-(4-Chloro-benzenesulfonyl)-piperidin-4-yl]-3-(3-trifluoromethyl-phenyl)-urea]", "% Inhibition": 90},
      {"compound": "CC(C)(C)C(=O)N1CCC(NC(=O)Nc2ccc(C(F)(F)F)cc2)CC1", "note": "[Compound 41, 1-(1-Pivaloylpiperidin-4-yl)-3-(4-(trifluoromethyl)phenyl)urea]", "% Inhibition": 97},
      {"compound": "O=C(Nc1ccc(F)cc1)NC1CCN(S(=O)(=O)c2cccc(C(F)(F)F)c2)CC1", "note": "[Compound 12, 1-(4-Fluoro-phenyl)-3-[1-(3-trifluoromethyl-benzenesulfonyl)-piperidin-4-yl]-urea]", "% Inhibition": 90},
      {"compound": "O=C(Nc1ccc(C(F)(F)F)cc1)NC1CCN(C(=O)c2ccccn2)CC1", "note": "[Compound 9, 1-[1-(Pyridine-2-carbonyl)-piperidin-4-yl]-3-(4-trifluoromethyl-phenyl)-urea]", "% Inhibition": 94},
      {"compound": "O=C(Nc1ccc(C(F)(F)F)cc1)NC1CCN(C(=O)c2ccc(C(=O)O)cc2)CC1", "note": "[Compound 11, 4-{4-[3-(4-Trifluoromethyl-phenyl)-ureido]-piperidine-1-carbonyl}-benzoic acid]", "% Inhibition": 98},
      {"compound": "O=C(Nc1ccc(F)cc1)NC1CCN(S(=O)(=O)c2ccccc2)CC1", "note": "[Compound 13, 1-(1-Benzenesulfonyl-piperidin-4-yl)-3-(4-fluoro-phenyl)-urea]", "% Inhibition": 79},
      {"compound": "O=C(Nc1cccc(C(F)(F)F)c1)NC1CCN(S(=O)(=O)c2ccccc2)CC1", "note": "[Compound 26, 1-(1-Benzenesulfonyl-piperidin-4-yl)-3-(3-trifluoromethyl-phenyl)-urea]", "% Inhibition": 90},
      {"compound": "CC(C)CC(=O)N1CCC(NC(=O)Nc2ccc(C(F)(F)F)cc2)CC1", "note": "[Compound 6, 1-[1-(3-Methyl-butyryl)-piperidin-4-yl]-3-(4-trifluoromethyl-phenyl)-urea]", "% Inhibition": 94},
      {"compound": "O=C(Nc1ccc(C(F)(F)F)cc1)NC1CCN(S(=O)(=O)c2ccc(C(=O)O)cc2)CC1", "note": "[Compound 16, 4-{4-[3-(4-Trifluoromethyl-phenyl)-ureido]-piperidine-1-sulfonyl}-benzoic acid]", "% Inhibition": 80},
      {"compound": "O=C(Nc1ccc(C(F)(F)F)cc1)NC1CCN(C(=O)Cc2c[nH]cn2)CC1", "note": "[Compound 33, 1-[1-(2-1H-Imidazol-4-yl-acetyl)-piperidin-4-yl]-3-(4-trifluoromethyl-phenyl)-urea]", "% Inhibition": 72},
      {"compound": "CC(=O)N1CCC(NC(=O)Nc2cccc(C(F)(F)F)c2)CC1", "note": "[Compound 25, 1-(1-Acetyl-piperidin-4-yl)-3-(3-trifluoromethyl-phenyl)-urea]", "% Inhibition": 68},
      {"compound": "O=C(Nc1ccc(F)cc1)NC1CCN(S(=O)(=O)c2ccc(C(F)(F)F)cc2)CC1", "note": "[Compound 14, 1-(4-Fluoro-phenyl)-3-[1-(4-trifluoromethyl-benzenesulfonyl)-piperidin-4-yl]-urea]", "% Inhibition": 89},
      {"compound": "CC(C)S(=O)(=O)N1CCC(NC(=O)Nc2ccc(C(F)(F)F)cc2)CC1", "note": "[Compound 42, 1-(1-(Isopropylsulfonyl)piperidin-4-yl)-3-(4-(trifluoromethyl)phenyl)urea]", "% Inhibition": 93},
      {"compound": "O=C(Nc1ccc(C(F)(F)F)cc1)NC1CCN(C(=O)c2cccnc2)CC1", "note": "[Compound 8, 1-[1-(Pyridine-3-carbonyl)-piperidin-4-yl]-3-(4-trifluoromethyl-phenyl)-urea]", "% Inhibition": 94},
      {"compound": "Cn1cnc(C(=O)N2CCC(NC(=O)Nc3ccc(C(F)(F)F)cc3)CC2)c1", "note": "[Compound 35, 1-[1-(1-Methyl-1H-imidazole-4-carbonyl)-piperidin-4-yl]-3-(4-trifluoromethyl-phenyl)-urea]", "% Inhibition": 89},
      {"compound": "O=C(Nc1ccc(F)cc1)NC1CCN(C(=O)c2ccc(C(=O)O)cc2)CC1", "note": "[Compound 10, 4-{4-[3-(4-Fluoro-phenyl)-ureido]-piperidine-1-carbonyl}-benzoic acid]", "% Inhibition": 75}
    ]},
    {"tested_on": "soluble epoxide hydrolase (sEH)", "assay": "Fluorescent assay for mouse and human soluble epoxide hydrolase (CMNPC substrate)", "format": "biochemical, mouse or human, not specified", "details": "Conc 200 nM", "description": "as §1", "units": {"% Inhibition": "%"}, "values": [
      {"compound": "CC(C)C(=O)N1CCC(NC(=O)Nc2ccc(C(F)(F)F)cc2)CC1", "note": "[Compound 45, 1-(1-isobutyrylpiperidin-4-yl)-3-(4-(trifluoromethyl)phenyl)urea]", "% Inhibition": 97},
      {"compound": "CC(C)(C)[S+]([O-])N1CCC(NC(=O)Nc2ccc(C(F)(F)F)cc2)CC1", "note": "(stereo not shown) [Compound 52, 1-(1-(tert-butylsulfinyl)piperidin-4-yl)-3-(4-(trifluoromethyl)phenyl)urea]", "% Inhibition": 94},
      {"compound": "CC(C)(C)CC(=O)N1CCC(NC(=O)Nc2ccc(C(F)(F)F)cc2)CC1", "note": "[Compound 48, 1-(1-(3,3-dimethylbutanoyl)piperidin-4-yl)-3-(4-(trifluoromethyl)phenyl)urea]", "% Inhibition": 100}
    ]},
    {"tested_on": "soluble epoxide hydrolase (sEH)", "assay": "Fluorescent assay for mouse and human soluble epoxide hydrolase (CMNPC substrate)", "format": "biochemical, mouse or human, not specified", "details": "Conc 500 nM", "description": "as §1", "units": {"% Inhibition": "%"}, "values": [
      {"compound": "CS(=O)(=O)N1CCC(NC(=O)Nc2cccc(F)c2)CC1", "note": "[Compound 31, 1-(3-Fluoro-phenyl)-3-(1-methanesulfonyl-piperidin-4-yl)-urea]", "% Inhibition": 80},
      {"compound": "O=C(Nc1ccc(F)cc1)NC1CCN(C(=O)c2cccnc2)CC1", "note": "[Compound 7, 1-(4-Fluoro-phenyl)-3-[1-(pyridine-3-carbonyl)-piperidin-4-yl]-urea]", "% Inhibition": 89},
      {"compound": "O=C(Nc1ccc(F)c(F)c1)NC1CCN(C(=O)CCCN2CCOCC2)CC1", "note": "[Compound 2, 1-(3,4-Difluoro-phenyl)-3-[1-(4-morpholin-4-yl-butyryl)-piperidin-4-yl]-urea]", "% Inhibition": 70},
      {"compound": "O=C(Nc1ccc(Cl)cc1)NC1CCN(C(=O)Cc2c[nH]cn2)CC1", "note": "[Compound 34, 1-(4-Chloro-phenyl)-3-[1-(2-1H-imidazol-4-yl-acetyl)-piperidin-4-yl]-urea]", "% Inhibition": 80}
    ]},
    {"tested_on": "soluble epoxide hydrolase (sEH)", "assay": "Fluorescent assay for mouse and human soluble epoxide hydrolase (CMNPC substrate)", "format": "biochemical, mouse or human, not specified", "details": "Conc 2000 nM", "description": "as §1", "units": {"% Inhibition": "%"}, "values": [
      {"compound": "COCC(=O)N1CCC(NC(=O)Nc2ccc(C(F)(F)F)cc2)CC1", "note": "[Compound 51, 1-(1-(2-methoxyacetyl)piperidin-4-yl)-3-(4-(trifluoromethyl)phenyl)urea]", "% Inhibition": 100}
    ]},
    {"tested_on": "soluble epoxide hydrolase (sEH)", "assay": "Fluorescent assay for mouse and human soluble epoxide hydrolase (CMNPC substrate)", "format": "biochemical, mouse or human, not specified", "details": "Conc 5000 nM", "description": "as §1", "units": {"% Inhibition": "%"}, "values": [
      {"compound": "CC(=O)N1CCC(NC(=O)Nc2ccccc2)CC1", "note": "[ComparativeExample 5, 1-(1-Acetyl-piperidin-4-yl)-3-phenyl-urea, reference compound]", "% Inhibition": 80},
      {"compound": "O=C(Nc1ccccc1)NC1CCN(C(=O)CCCN2CCOCC2)CC1", "note": "[ComparativeExample 1, 1-[1-(4-Morpholin-4-yl-butyryl)-piperidin-4-yl]-3-phenyl-urea, reference compound]", "% Inhibition": 96}
    ]}
  ]
}
